From ChEMBL document CHEMBL1143348, “Design, synthesis, and cytoprotective effect of 2-aminothiazole analogues as potent poly(ADP-ribose) polymerase-1 inhibitors” (J Med Chem, 2009) come the findings set out here.

Test [1] concerns PC-12. The experiment in a line: Cytoprotective activity against H2O2-induced cell death in rat PC12 cells by MTT assay after 6 hrs. Type of test: functional, cell-based. The settings on record: PC-12, 6 h.
For test [2], the system named is PC-12. As to the kind of experiment: Cytoprotective activity against oxygen-glucose deprivation-induced cell death in rat PC12 cells by MTT assay. It is filed as functional, cell-based.
The target in test [3] is Poly [ADP-ribose] polymerase 1 (Homo sapiens, UniProt P09874).
Description: Inhibition of human recombinant PARP1
The test system of test [4] is PC-12. The experiment in a line: Cytoprotective activity in rat PC12 cells assessed as reduction in oxygen-glucose deprivation-induced LDH release at 3 uM. Type of test: functional. Further details: scale not given: the % may be the effect or the level left.
The subject of test [5] is PC-12. The experiment in a line: Cytoprotective activity against oxygen-glucose deprivation-induced apoptosis in rat PC12 assessed as live cells at 3 uM by flow cytometry using FITC-conjugated annexin V and propidium iodide staining relative to control. Type of test: functional.
Test [6] has as its system PC-12. As to the kind of experiment: Cytoprotective activity against oxygen-glucose deprivation-induced apoptosis in rat PC12 assessed as early apoptotic cells at 3 uM by flow cytometry using FITC-conjugated annexin V and propidium iodide staining relative to control. Type of test: functional.
The test system of test [7] is PC-12. As to the kind of experiment: Cytoprotective activity against oxygen-glucose deprivation-induced apoptosis in rat PC12 assessed as late apoptotic cells at 3 uM by flow cytometry using FITC-conjugated annexin V and propidium iodide staining relative to control. It is filed as functional.
For test [8], the system named is PC-12. As to the kind of experiment: Cytoprotective activity against oxygen-glucose deprivation-induced apoptosis in rat PC12 assessed as damaged cells at 3 uM by flow cytometry using FITC-conjugated annexin V and propidium iodide staining relative to control. It is filed as functional.
Test [9] has as its system PC-12. As to the kind of experiment: Cytoprotective activity against oxygen-glucose deprivation-induced apoptosis in rat PC12 assessed as total apoptotic cells at 3 uM by flow cytometry using FITC-conjugated annexin V and propidium iodide staining relative to control. Type of test: functional.

Chain of Poly [ADP-ribose] polymerase 1 (P09874 whole entry): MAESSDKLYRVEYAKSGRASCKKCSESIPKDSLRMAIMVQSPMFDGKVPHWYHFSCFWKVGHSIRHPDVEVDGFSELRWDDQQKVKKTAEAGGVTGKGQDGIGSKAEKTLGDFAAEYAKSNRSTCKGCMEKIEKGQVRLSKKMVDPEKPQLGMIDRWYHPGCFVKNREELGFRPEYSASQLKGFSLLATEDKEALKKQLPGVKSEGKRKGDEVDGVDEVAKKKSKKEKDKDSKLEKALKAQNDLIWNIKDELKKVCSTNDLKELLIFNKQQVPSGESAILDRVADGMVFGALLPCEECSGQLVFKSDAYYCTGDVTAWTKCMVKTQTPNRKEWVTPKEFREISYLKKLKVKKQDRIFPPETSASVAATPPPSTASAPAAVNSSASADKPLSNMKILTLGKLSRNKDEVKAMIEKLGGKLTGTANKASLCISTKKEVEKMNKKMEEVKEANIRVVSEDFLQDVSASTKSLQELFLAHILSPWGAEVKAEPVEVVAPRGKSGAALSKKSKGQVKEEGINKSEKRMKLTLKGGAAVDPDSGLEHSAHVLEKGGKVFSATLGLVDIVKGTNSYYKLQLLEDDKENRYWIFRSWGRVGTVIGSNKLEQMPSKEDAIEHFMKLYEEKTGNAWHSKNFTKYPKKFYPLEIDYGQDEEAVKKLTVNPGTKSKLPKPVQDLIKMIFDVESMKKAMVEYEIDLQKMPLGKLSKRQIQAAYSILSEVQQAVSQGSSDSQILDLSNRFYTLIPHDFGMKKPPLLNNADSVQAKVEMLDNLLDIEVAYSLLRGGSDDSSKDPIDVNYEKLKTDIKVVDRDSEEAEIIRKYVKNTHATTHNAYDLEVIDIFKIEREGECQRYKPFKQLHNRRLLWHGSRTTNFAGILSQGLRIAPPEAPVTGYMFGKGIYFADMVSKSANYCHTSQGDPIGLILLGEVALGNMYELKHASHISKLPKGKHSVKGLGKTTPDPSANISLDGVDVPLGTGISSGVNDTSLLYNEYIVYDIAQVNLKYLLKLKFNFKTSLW

With `CCOC(=O)CCC(=O)Nc1nc2c(s1)CCCC2`, the EC50 was over 3 µM in test [1] and 0.961 µM in test [2]. Moreover, in test [3], 12.4 µM corresponded to half-maximal inhibition (IC50).
`Nc1ncnc2c1ncn2[C@@H]1O[C@H](COCNC(=O)CCC(=O)Nc2cccc3c2CNC3=O)[C@@H](O)[C@H]1O` returned an IC50 in test [3] of 0.1 µM.
Compound `CC1CCc2nc(CCCN3CC=C(c4ccccc4)CC3)[nH]c(=O)c2C1` (configuration not stated) registered a half-maximal inhibitory concentration (IC50) in test [3] of 0.274 µM.
On to `O=C1NCCn2c(CN3CCCCC3)cc3cccc1c32`, for which the IC50 in test [3] was determined as 0.109 µM.
Same read-out and setting: then `O=c1[nH]c(CCCN2CC=C(c3ccccc3)CC2)nc2c1CCC2`, with 0.249 µM.
Turning to `O=c1[nH]c2ccc(CCN3CC=C(c4ccccc4)CC3)cc2c2ccccc12`, the IC50 in test [3] amounted to 0.046 µM.
`O=c1[nH]c(CCCN2CC=C(c3ccccc3)CC2)nc2cccc(Cl)c12` had an IC50 in test [3] of 0.682 µM.
In test [3], `O=c1[nH]c2ccc(CCCN3CC=C(c4ccccc4)CC3)cc2c2ccccc12` gave an IC50 of 0.119 µM.
Consider `O=C(/C=C/c1ccccc1)Nc1nc(-c2ccccc2)cs1`, for which the EC50 in test [1] stood at 0.129 µM; in test [2], 0.559 µM. Further, the Activity in [4] is 33.1%; in [5], 84%; in test [6], 8.4%; in test [7], 3.7%; in test [8] it was 3.9%; in test [9], 64.4%. In test [3], 0.224 µM corresponded to half-maximal inhibition (IC50).
In the case of `O=C(CCn1c2c(c(=O)[nH]c1=O)CSCC2)NCC(=O)c1ccc(-c2ccnnc2)cc1`, inhibition in test [3] was half-maximal at 0.025 µM (IC50).
As for `CCOC(=O)CCC(=O)Nc1nc(-c2ccccc2)cs1`, the EC50 in test [1] worked out at 0.537 µM; in test [2] it was 0.143 µM. Further, the Activity in test [4] is 34.6%; in test [5], 80.6%; in test [6], 8.5%; in test [7], 5.9%; in [8] it was 5%; in test [9], 70.7%. This compound also gave an IC50 in test [3] of 0.24 µM.
`CN(C)CCCOc1ccc(-c2nc3cccc4c3n2CCNC4=O)cc1`: in test [3], the IC50 came out at 0.063 µM.
`CCOC(=O)c1ccc(CCc2nc3cccc4c3n2CCNC4=O)cc1` yielded a half-maximal inhibitory concentration (IC50) in test [3] of 0.097 µM.
On the same count and under the same terms, the same measure for `Cc1sc(-c2ccccc2)nc1C(=O)Nc1cccc(Cc2n[nH]c(=O)c3ccccc23)c1`: 0.027 µM.
For `CCOc1ccc(-c2csc(/N=C/c3c[nH]c4ccccc34)n2)c(OCC)c1`, the values for the EC50 in test [1] and in test [2] were 0.324 µM and 0.361 µM, respectively. Moreover, the Activity in test [4] is listed as 28.4%. This compound also returned a 50% inhibitory concentration (IC50) in [3] of 0.24 µM.
`COc1cc(/C=C/C(=O)Nc2nc3c(s2)CCCC3)cc(OC)c1`: the EC50 in [1] was 2.09 µM; in test [2] it was 1.04 µM. In test [3], this compound showed an IC50 of 9.33 µM.
Consider `O=C(Nc1nc(-c2ccccc2)cs1)c1ccncc1`, for which the EC50 in test [1] was found to be 1.55 µM; in test [2], 0.191 µM. The Activity in test [4] worked out at 20.1%; in [5], 73.8%; in [6], 8.6%; in [7], 11.6%; in [8] it was 6%; in [9], 45.1%. In [3], the IC50 was determined as 0.753 µM.
With `COc1cc(/C=C/C(=O)Nc2nc(-c3ccccc3)cs2)cc(OC)c1`, the EC50 worked out at 1.12 µM in test [1] and 0.527 µM in [2]. Besides, the Activity in test [4] is on record as 24%. This compound also came in with an IC50 in [3] of 4.53 µM.
